In PMC4351682, “Formononetin inhibits enterovirus 71 replication by regulating COX- 2/PGE2 expression” (Virology Journal, 2015):

Assays:
EV71 strain BrCr = experiment: CPE inhibition assay, EV71 strain BrCr in Vero cells; format: cell-based, enterovirus 71; details: Enterovirus A
Method: (§1) The anti-EV71 activity of formononetin was assayed by CPE inhibition method. Briefly, cells (3 × 10^4 cells/well) were plated into 96-well culture plates for incubation of 24 h. The medium was then removed and cells were infected with EV71 of 80 pfu/well. Then, various concentrations of formononetin were supplemented for incubation of another 48 h. The IC50 defined as the minimal concentration of inhibitor required to inhibit 50% of CPE was determined by Reed & Muench method. The selectivity index (SI) was calculated as the ratio of TC50/IC50 [19].

CVB6 (strain Schmitt) = experiment: CPE inhibition assay for anti-CVBs, CVB6 in Vero cells; format: cell-based, coxsackievirus B6; details: Enterovirus B, CVB6, 100 TCID50, Vero cells
Method: The anti-virus activity of formononetin on CVBs was also assayed by CPE method. Briefly, cells (3 × 10^4 cells/well) were plated into 96-well culture plates for incubation of 24 h. The medium was removed and cells were infected with 100 TCID50 of CVB2, CVB6 or CVB3. Then, various concentrations of formononetin were supplemented for incubation of another 48 h. The IC50 was determined by Reed and Muench method. The SI was calculated as the ratio of TC50/IC50 [19].

Vero cells = experiment: Cytotoxicity assay (MTS) in Vero cells; format: cell-based; details: 3 days
Method: (§2) Cytotoxic effect of formononetin on Vero or SK-N-SH cells was assayed by MTS (promega) assay. Briefly, cells (3 × 10^4 cells/well) were seeded into 96-well culture plates and were incubated overnight. Then, the medium was removed and different concentrations of formononetin were applied in triplicate. After 3 days’ incubation, the cytotoxicity of formononetin was determined by MTS assay. The TC50 was defined as the concentration that inhibits 50% cellular growth in comparison with the controls and the TC0 was defined as the maximal non-toxicity dose.

SK-N-SH cells = experiment: Cytotoxicity assay (MTS) in SK-N-SH cells; format: cell-based; details: 3 days
Method: as §2

EV71 strain H = experiment: CPE inhibition assay, EV71 strain H in Vero cells; format: cell-based, enterovirus 71; details: Enterovirus A
Method: as §1

EV71 strain JS-52 = experiment: CPE inhibition assay, EV71 strain JS-52 in Vero cells; format: cell-based, enterovirus 71; details: Enterovirus A, EV71 JS-52, Vero cells
Method: as §1

EV71 VP1 protein = experiment: Immunofluorescence assay of EV71 VP1 protein in SK-N-SH cells; format: cell-based, enterovirus 71; details: EV71 SHZH98 160 pfu/well, 24 h treatment
Source text: Figure 2 The antiviral effect of formononetin and pirodavir against EV71 in SK-N-SH cells. (A) Formononetin and pirodavir reduced the expression of EV71 VP1 protein in SK-N-SH cells by western blot assay. (B) Formononetin and pirodavir reduced the expression of EV71 VP1 protein in SK-N-SH cells by immunofluorescence assay. Cells were examined using a fluorescence microscopy (×100). (C) Formononetin and pirodavir reduced the expression of EV71 VP1 RNA by one-step qRT-PCR assay. *P < 0.001 ^# P < 0.05.
SK-N-SH cells grown on glass coverslips (Thermo) were infected with EV71 (SHZH98) of 160 pfu/well for 2 h. Then, various concentrations of formononetin were supplemented for incubation of another 24 h. After incubation, the culture medium was removed and the cells were washed and fixed. The cells were permeabilized in 0.5% Triton X-100 at room temperature for 15 min and blocked in PBS containing 1% BSA for 60 min at room temperature. Cells were then incubated with an anti-EV71 VP1 antibody (Abnova) at a dilution of 1: 500 for 2 h at room temperature. After washing three times with PBS, the samples were reacted with Alexa Fluor 488-labeled goat anti-mouse secondary antibody (Beyotime Institute of Biotechnology, China) for 1 h at room temperature. After washing with PBS, images were taken using a fluorescence microscope (Olympus, IX71).

EV71 = experiment: Antiviral activity against EV71, comparison of pirodavir and pleconaril (data not shown); format: cell-based, enterovirus 71

SMILES | IC50 (EV71 strain BrCr) [µM] | IC50 (CVB6 (strain Schmitt)) [µM] | TC0 (maximal non-toxicity dose) (Vero cells) [µmol/L] | TC50 (50% toxicity concentration) (Vero cells) [µM] | TC0 (maximal non-toxicity dose) (Vero cells; listed as formononetin) [µmol/L] | TC50 (50% toxicity concentration) (Vero cells; listed as formononetin) [µM] | TC0 (maximal non-toxicity dose) (SK-N-SH cells) [µmol/L] | TC50 (50% toxicity concentration) (SK-N-SH cells) [µM] | TC0 (maximal non-toxicity dose) (SK-N-SH cells; listed as formononetin) [µmol/L] | TC50 (50% toxicity concentration) (SK-N-SH cells; listed as formononetin) [µM] | IC50 (EV71 strain H) [µM] | IC50 (EV71 strain JS-52) [µM] | Expression of EV71 VP1 protein (immunofluorescence assay) (EV71 VP1 protein) | Antiviral activity against EV71 compared with pleconaril (EV71)
COc1ccc(-c2coc3cc(O)ccc3c2=O)cc1 [Formononetin] | 6.47 ± 4.4 | 5.33 ± 1.48 | 41.42 ± 0 | 149.38 ± 12.15 | 41.42 | 149.38 | 55.92 ± 0 | 198.80 ± 6.02 | 55.92 | 198.80 | 11.1 ± 9.23 | 17.9 ± 8.51 |  | 
CCOC(=O)c1ccc(OCCC2CCN(c3ccc(C)nn3)CC2)cc1 [Pirodavir, reference compound] |  |  |  |  |  |  |  |  |  |  |  |  | reduced | better than pleconaril
